For 18 molecules, melting point, EC50 and IC50 results are on record in patent US8546608B2, “Proteasome inhibitors and methods of using the same” (Cephalon, Inc., priority 2003, dated 2013).

In data set [1] the target is T1, proteasome in Molt-4 cells (human leukemia) (Homo sapiens, UniProt P20618+P28074).
T1 sequence (P28074 60-263): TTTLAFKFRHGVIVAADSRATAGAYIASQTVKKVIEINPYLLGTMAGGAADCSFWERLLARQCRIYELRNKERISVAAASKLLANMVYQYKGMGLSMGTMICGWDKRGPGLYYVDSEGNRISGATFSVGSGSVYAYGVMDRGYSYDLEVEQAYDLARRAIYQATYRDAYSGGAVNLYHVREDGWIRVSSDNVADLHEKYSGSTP
T1 sequence (P20618 29-241): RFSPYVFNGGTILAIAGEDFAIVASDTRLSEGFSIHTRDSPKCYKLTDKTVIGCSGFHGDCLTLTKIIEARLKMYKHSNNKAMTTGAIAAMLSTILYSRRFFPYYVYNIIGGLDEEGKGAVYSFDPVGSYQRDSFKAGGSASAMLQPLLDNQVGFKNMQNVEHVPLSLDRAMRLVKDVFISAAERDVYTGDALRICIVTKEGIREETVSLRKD
The format is cell-based. To be noted: assay of Example E, inhibition of MOLT4; read-out: MOLT4 (EC50). The procedure, abridged: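 Intact Molt-4 cells (6×10^6 cells/mL) in HEPES-buffered saline were preincubated with inhibitor 15 min at 37 °C, then given cell-permeable MeOSuc-FLF-AFC at 25 μM final.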

Data set [2] addresses T2, 20S Human Erythrocyte Proteasome (HEP) (Homo sapiens, UniProt P20618+P28074).
T2 construct: 20S Human Erythrocyte Proteasome (HEP), purchased from Immatics Biotechnologies Inc; purchased Immatics Biotechnologies Inc., Tübingen, Germany; host or cells: human erythrocytes (natural source)
The data set is described as follows: Chymotrypsin-like activity of 20S Human Erythrocyte Proteasome (HEP), IC50 determination. It is filed as biochemical. The conditions noted are these: assay of Example C, inhibition of HEP. The method, boiled down:
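20S proteasome at 0.2 μg/mL (about 0.6 nM catalytic sites) in 20 mM Tris with 0.04% SDS, preincubated 15 min at 37° C with inhibitor before Suc-LLVY-AMC (100 μM final). AMC fluorescence read in the linear range; triplicates, IC50 from concentration series.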

pEC50, pIC50: −log10 of the molar value.

In turn, `CC(C)C[C@H](NC(=O)[C@@H](NC(=O)[C@H](CC(C)C)NC(=O)OCc1ccccc1)[C@@H](C)O)B1O[C@@H]2C[C@@H]3C[C@@H](C3(C)C)[C@]2(C)O1` [D.8.1, (2S)-2-[(Benzyloxycarbonyl)amino]-4-methylpentanamide, N-[(1S,2R)-1-[[[(1R)-1-[(3aS,4S,6S,7aR)-hexahydro-3a,5,5-trimethyl-4,6-methano-1,3,2-benzodioxaborol-2-yl]-3-methylbutyl]amino]carbonyl]-2-hydroxypropyl]-] came in with a melting point of 38 to 40 °C. Molecule `CCCCc1ccc(C(=O)N[C@@H](CNC(=O)OCc2ccccc2)C(=O)N[C@@H](CC(C)C)B2O[C@@H]3C[C@@H]4C[C@@H](C4(C)C)[C@]3(C)O2)cc1` [D.16.6] returned a melting point of 95 to 100 °C. In addition, the pEC50 in data set [1] was above 6.70. In data set [2], this molecule gave a negative logarithm of the IC50 (pIC50) above 8.00.

The molecule `CC(C)C[C@H](NC(=O)[C@H](CNC(=O)OCc1ccccc1)NC(=O)c1ccc(Oc2ccccc2)cc1)B1O[C@@H]2C[C@@H]3C[C@@H](C3(C)C)[C@]2(C)O1` [D.16.9] returned a melting point of 100 to 103 °C. On the same count and under the same terms, the result for `CCCCCCCCCC(=O)N[C@@H](CNC(=O)c1ccc(S(N)(=O)=O)cc1)C(=O)N[C@@H](CC(C)C)B1O[C@@H]2C[C@@H]3C[C@@H](C3(C)C)[C@]2(C)O1` [D.24.2, Decanamide, N-[(1S)-1-[[[(1R)-1-[(3aS,4S,6S,7aR)-hexahydro-3a,5,5-trimethyl-4,6-methano-1,3,2-benzodioxaborol-2-yl]-3-methylbulyl]amino]carbonyl]-2-[(4-sulfonamidophenyl)carbonyl-amido]ethyl]-] reads 178 to 181 °C.

In turn, `CCCCc1ccc(C(=O)N[C@@H](CNC(C)=O)C(=O)N[C@@H](CC(C)C)B2O[C@@H]3C[C@@H]4C[C@@H](C4(C)C)[C@]3(C)O2)cc1` [D.24.3, 4-butylbenzamide, N-[(1S)-1-[[[(1R)-1-[(3aS,aS,6S,7aR)-hexahydro-3a,5,5-trimethyl-4,6-methano-1,3,2-benzodioxaborol-2-yl-]-3-methylbutyl]amino]carbonyl]-2-(acetamido)ethyl]-] registered a melting point of 133 to 135 °C. For the same molecule, in data set [1], the pEC50 was above 6.70. The molecule also had a pIC50 in data set [2] above 8.00. On the same counts, the results for `CCCCc1ccc(C(=O)N[C@@H](CNS(C)(=O)=O)C(=O)N[C@@H](CC(C)C)B2O[C@@H]3C[C@@H]4C[C@@H](C4(C)C)[C@]3(C)O2)cc1` [D.24.4, 4-butylbenzamide, N-[(1S)-1-[[[(1R)-1-[(3aS,aS,6S,7aR)-hexahydro-3a,5,5-trimethyl-4,6-methano-1,3,2-benzodioxaborol-2-yl-]-3-methylbulyl]amino]carbonyl]-2-(methanesulfonamido)ethyl]-] are 53 to 55 °C, above 6.70 and above 8.00.

The molecule `CCCCc1ccc(C(=O)N[C@@H](CNC(=O)c2ccc(C)cc2)C(=O)N[C@@H](CC(C)C)B2O[C@@H]3C[C@@H]4C[C@@H](C4(C)C)[C@]3(C)O2)cc1` [D.24.6, 4-butylbenzamide, N-[(1S)-1-[[[(1R)-1-[(3aS,aS,6S,7aR)-hexahydro-3a,5,5-trimethyl-4,6-methano-1,3,2-benzodioxaborol-2-yl-]-3-methylbutyl]amino]carbonyl]-2-[(4-methylphenyl)carbonylamino]ethyl]-] registered a melting point of 150 to 152 °C. Moreover, the pEC50 in data set [1] was above 6.70. This molecule also showed a pIC50 in data set [2] above 8.00.

`CCCCc1ccc(C(=O)N[C@@H](CNC(=O)c2cccn2C)C(=O)N[C@@H](CC(C)C)B2O[C@@H]3C[C@@H]4C[C@@H](C4(C)C)[C@]3(C)O2)cc1` [D.24.13] gave a melting point of 88 to 92 °C. Still for that read-out and setting: the same measure for `CCCCc1ccc(C(=O)N[C@@H](CNC(=O)c2ccno2)C(=O)N[C@@H](CC(C)C)B2O[C@@H]3C[C@@H]4C[C@@H](C4(C)C)[C@]3(C)O2)cc1` [D.24.21, 4-butylbenzamide, N-[(1S)-1-[[[(1R)-1-[(3aS,aS,6S,7aR)-hexahydro-3a,5,5-trimethyl-4,6-methano-1,3,2-benzodioxaborol-2-yl-]-3-methylbutyl]amino]carbonyl]-2-[(1-isoxazol-5-yl)-carbonylamino]ethyl]-]: 128 to 130 °C. The same measure, in the same setting: the result for `CCCCc1ccc(C(=O)N[C@@H](CNS(=O)(=O)c2cn(C)cn2)C(=O)N[C@@H](CC(C)C)B2O[C@@H]3C[C@@H]4C[C@@H](C4(C)C)[C@]3(C)O2)cc1` [D.24.23, 4-butylbenzamide, N-[(1S)-1-[[[(1R)-1-[(3aS,aS,6S,7aR)-hexahydro-3a,5,5-trimethyl-4,6-methano-1,3,2-benzodioxaborol-2-yl-]-3-methylbulyl]amino]carbonyl]-2-[(1-methyl-1H-imidazole-4-)sulfonylamino]ethyl]-] reads 69 to 71 °C.

`CC(C)C[C@H](NC(=O)[C@H](CNS(=O)(=O)c1ccc(F)cc1)NC(=O)c1ccc(Oc2ccccc2)cc1)B1O[C@@H]2C[C@@H]3C[C@@H](C3(C)C)[C@]2(C)O1` [D.24.29, 4-phenoxybenzamide, N-[(1S)-1-[[[(1R)-1-[(3aS,4S,6S,7aR)-hexahydro-3a,5,5-trimethyl-4,6-methano-1,3,2-benzodioxaborol-2-yl]-3-methylbutyl]amino]carbonyl]-2-[4-fluoro-benzenesulfonammide]ethyl]-] had a melting point of 90 to 93 °C. For `Cc1cc(C(=O)NC[C@H](NC(=O)c2ccc(Oc3ccccc3)cc2)C(=O)N[C@@H](CC(C)C)B2O[C@@H]3C[C@@H]4C[C@@H](C4(C)C)[C@]3(C)O2)n(C)n1` [D.24.30, 4-phenoxybenzamide, N-[(1S)-1-[[[(1R)-1-[(3aS,aS,6S,7aR)-hexahydro-3a,5,5-trimethyl-4,6-methano-1,3,2-benzodioxaborol-2-yl-]-3-methylbutyl]amino]carbonyl]-2-[(2,5-dimethyl-2H-pyrazole)carbonylamino]ethyl]-], the melting point lay in the range of 100 to 103 °C. On the same count and under the same terms, the result for `CC(C)C[C@H](NC(=O)[C@H](CNC(=O)c1ccc(-c2ccccc2)cc1)NC(=O)c1ccc(Oc2ccccc2)cc1)B1O[C@@H]2C[C@@H]3C[C@@H](C3(C)C)[C@]2(C)O1` [D.24.31, 4-phenoxybenzamide, N-[(1S)-1-[[[(1R)-1-[(3aS,4S,6S,7aR)-hexahydro-3a,5,5-trimethyl-4,6-methano-1,3,2-benzodioxaborol-2-yl]-3-methylbutyl]amino]carbonyl]-2-(4-phenylbenzoylamino)ethyl]-] reads 150 to 152 °C; that for `CCCCc1ccc(C(=O)N[C@@H](CNC(=O)c2ccc(-c3ccccc3)cc2)C(=O)N[C@@H](CC(C)C)B2O[C@@H]3C[C@@H]4C[C@@H](C4(C)C)[C@]3(C)O2)cc1` [D.24.32, 4-butylbenzamide, N-[(1S)-1-[[[(1R)-1-[(3aS,4S,6S,7aR)-hexahydro-3a,5,5-trimethyl-4,6-methano-1,3,2-benzodioxaborol-2-yl]-3-methylbutyl]amino]carbonyl]-2-(4-phenylbenzoylamino)ethyl]-], 195 to 198 °C; that for `CCCCc1ccc(C(=O)N[C@@H](CNC(=O)C#Cc2ccccc2)C(=O)N[C@@H](CC(C)C)B2O[C@@H]3C[C@@H]4C[C@@H](C4(C)C)[C@]3(C)O2)cc1` [D.24.33, 4-butylbenzamide, N-[(1S)-1-[[[(1R)-1-[(3aS,4S,6S,7aR)-hexahydro-3a,5,5-trimethyl-4,6-methano-1,3,2-benzodioxaborol-2-yl]-3-methylbutyl]amino]carbonyl]-2-(3-phenylpropynoylamino)ethyl]-], 118 to 120 °C. Regarding `CCCCc1ccc(C(=O)N[C@@H](CNC(=O)C2CCN(S(C)(=O)=O)CC2)C(=O)N[C@@H](CC(C)C)B2O[C@@H]3C[C@@H]4C[C@@H](C4(C)C)[C@]3(C)O2)cc1` [D.24.36, 4-butylbenzamide, N-[(1S)-1-[[[(1R)-1-[(3aS,aS,6S,7aR)-hexahydro-3a,5,5-trimethyl-4,6-methano-1,3,2-benzodioxaborol-2-yl-]-3-methylbutyl]amino]carbonyl]-2-(1-methanesulfonyl-piperidine-4-carbonylamino)ethyl]-], the melting point was in the range of 170 to 172 °C. The molecule `CCCCc1ccc(C(=O)N[C@@H](CNC(=O)Cc2ccc(OC)c(OC)c2)C(=O)N[C@@H](CC(C)C)B(O)O)cc1` [E.5.15, Boronic acid, [(1R)-1-[[(2S)-3-[(3,4-dimethoxyphenyl)acetylamino]-2-[(4-butylbenzoylamino)]-1-oxopropyl]amino]-3-methylbutyl]] returned a melting point of 150 to 152 °C. Molecule `CCCCc1ccc(C(=O)N[C@@H](CNC(=O)C2CCN(S(C)(=O)=O)CC2)C(=O)N[C@@H](CC(C)C)B(O)O)cc1` [E.5.38, Boronic acid, [(1R)-1-[[(2S)-3-(1-methanesulfonylpiperidine-4-carbonylamino)-2-[(4-butylbenzoylamino)]-1-oxopropyl]amino]-3-methylbutyl]] showed a melting point of 170 to 173 °C.

The term melting point denotes the temperature of the solid-liquid transition. One may read the pEC50 as the negative decadic logarithm of the EC50, by convention in mol/L. The term pIC50 denotes the negative decadic logarithm of the IC50, by convention in mol/L. A lower pIC50 goes with a high IC50.
